Measurements reported in the NIST ThermoML archive (doi:10.1016/j.jct.2016.11.002).

Legend:
[1] = refractive index (Na D-line) (dimensionless); xn = mol fraction of the nth substance listed; details: 100 kPa, Liquid, Standard Abbe refractometry
[2] = xn = mol fraction of the nth substance listed; details: 100 kPa, Liquid; for speed of sound: Frequency=3 MHz, Single path-length method; for mass density: Vibrating tube method

CCCOCCO [2-propoxyethanol] + CCOC(=O)OCC
Details	mass density, [2] [kg/m3]	refractive index, [1]	speed of sound, [2] [m/s]
298.15 K, x2 = 0	907.16	1.4103	1300.9
298.15 K, x2 = 0.0881	912.3	1.4089	1289.1
298.15 K, x2 = 0.1907	918.42	1.4074	1276.1
298.15 K, x2 = 0.2866	924.17	1.4062	1264
298.15 K, x2 = 0.3906	930.48	1.4046	1250.3
298.15 K, x2 = 0.484	936.17	1.4023	1237.8
298.15 K, x2 = 0.5955	943.04	1.3988	1223.4
298.15 K, x2 = 0.6907	948.97	1.3953	1211.7
298.15 K, x2 = 0.7908	955.29	1.3914	1200
298.15 K, x2 = 0.8939	961.94	1.3871	1188.5
303.15 K, x2 = 0	902.74	1.4081	1283.7
303.15 K, x2 = 0.0881	907.76	1.4068	1271.7
303.15 K, x2 = 0.1907	913.74	1.4054	1258.2
303.15 K, x2 = 0.2866	919.36	1.4042	1245.6
303.15 K, x2 = 0.3906	925.55	1.4026	1231.5
303.15 K, x2 = 0.484	931.11	1.4004	1218.7
303.15 K, x2 = 0.5955	937.84	1.3968	1203.9
303.15 K, x2 = 0.6907	943.65	1.3933	1192
303.15 K, x2 = 0.7908	949.85	1.3894	1180.1
303.15 K, x2 = 0.8939	956.4	1.385	1168.3
308.15 K, x2 = 0	898.32	1.4058	1266.4
308.15 K, x2 = 0.0881	903.19	1.4046	1254.2
308.15 K, x2 = 0.1907	909.01	1.4034	1240.2
308.15 K, x2 = 0.2866	914.52	1.4023	1227.1
308.15 K, x2 = 0.3906	920.55	1.4006	1212.7
308.15 K, x2 = 0.484	926.02	1.3984	1199.7
308.15 K, x2 = 0.5955	932.6	1.3948	1184.6
308.15 K, x2 = 0.6907	938.31	1.3912	1172.3
308.15 K, x2 = 0.7908	944.38	1.3873	1160.2
308.15 K, x2 = 0.8939	950.83	1.3828	1148.2
313.15 K, x2 = 0	893.89	1.4034	1249.2
313.15 K, x2 = 0.0881	898.63	1.4024	1236.8
313.15 K, x2 = 0.1907	904.33	1.4014	1222.3
313.15 K, x2 = 0.2866	909.68	1.4004	1208.8
313.15 K, x2 = 0.3906	915.57	1.3987	1194
313.15 K, x2 = 0.484	920.91	1.3964	1180.7
313.15 K, x2 = 0.5955	927.35	1.3928	1165.3
313.15 K, x2 = 0.6907	932.94	1.3892	1152.9
313.15 K, x2 = 0.7908	938.9	1.3851	1140.5
313.15 K, x2 = 0.8939	945.23	1.3805	1128.3
318.15 K, x2 = 0	889.45	1.4011	1231.9
318.15 K, x2 = 0.0881	894.03	1.4003	1219.3
318.15 K, x2 = 0.1907	899.58	1.3995	1204.5
318.15 K, x2 = 0.2866	904.8	1.3985	1190.6
318.15 K, x2 = 0.3906	910.54	1.3967	1175.3
318.15 K, x2 = 0.484	915.74	1.3944	1161.8
318.15 K, x2 = 0.5955	922.05	1.3908	1146.2
318.15 K, x2 = 0.6907	927.53	1.3872	1133.5
318.15 K, x2 = 0.7908	933.4	1.3831	1121
318.15 K, x2 = 0.8939	939.63	1.3782	1108.6
323.15 K, x2 = 0	885	1.3988	1215
323.15 K, x2 = 0.0881	889.44	1.3982	1201.9
323.15 K, x2 = 0.1907	894.82	1.3975	1186.8
323.15 K, x2 = 0.2866	899.91	1.3966	1172.5
323.15 K, x2 = 0.3906	905.53	1.3947	1156.9
323.15 K, x2 = 0.484	910.62	1.3924	1143.2
323.15 K, x2 = 0.5955	916.75	1.3888	1127.3
323.15 K, x2 = 0.6907	922.11	1.3852	1114.5
323.15 K, x2 = 0.7908	927.83	1.3809	1101.7
323.15 K, x2 = 0.8939	933.96	1.376	1089
